Measured values taken from BindingDB's records for doi:10.7270/Q2S46QBK (The Scripps Research Institute Molecular Screening Center, 2008).
pIC50: −log10 of the molar value.

target: T1, Signal transducer and activator of transcription 3 [702-738,740-752] (Homo sapiens, UniProt P40763); assay: STAT3 activation reporter response, dose response, cell-based (AID 1398)
T1 construct: 702-738,740-752
T1 sequence (P40763 as listed by the source): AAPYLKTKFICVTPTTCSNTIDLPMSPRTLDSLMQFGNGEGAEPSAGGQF

`Cc1[nH]n(-c2ccccc2)c(=O)c1C=C1C(=O)NC(=O)NC1=O` and `COc1ccccc1NC(=O)c1[nH]c(C)c(C(C)=O)c1C` [SMR000066913] cannot be ordered by pIC50: < 4.25 for the first, < 7.59 for the second.

`Cc1nonc1CC(=O)N1CCc2c([nH]c3ccccc23)C1c1ccccc1F` (stereo not given) [1-[1-(2-fluorophenyl)-1,3,4,9-tetrahydropyrido[3,4-b]indol-2-yl]-2-(4-methyl-1,2,5-oxadiazol-3-yl)ethanone] and `Cn1c(CNc2ccccc2O)nc2ccccc21` [2-[(1-methyl-2-benzimidazolyl)methylamino]phenol] cannot be ordered by pIC50: < 5.69 for the first, < 8.07 for the second.

`CCCSc1nnc(Sc2nnnn2-c2ccccc2)s1` [2-(1-phenyltetrazol-5-yl)sulfanyl-5-propylsulfanyl-1,3,4-thiadiazole] and `CC(=O)Nc1c(Cl)n(C(C)=O)c2ccccc12` [MLS000104263] cannot be ordered by pIC50: < 5.21 for the first, < 7.12 for the second.

`Cc1cccc(NC(=O)c2cc([N+](=O)[O-])ccc2Cl)c1O` [2-chloranyl-N-(3-methyl-2-oxidanyl-phenyl)-5-nitro-benzamide] and `COc1ccccc1C(=O)Nc1cc(Cl)ccc1O` [MLS000078111] cannot be ordered by pIC50: < 5.21 for the first, < 5.69 for the second.

`Cn1nc(-c2ccc(Cl)cc2)c2cc(C(=O)NCCCN3CCCC3)sc21` [3-(4-chlorophenyl)-1-methyl-N-(3-pyrrolidin-1-ylpropyl)thieno[2,3-c]pyrazole-5-carboxamide] and `Nc1nc(-c2ccc(Cl)cc2)nn1C(=O)c1cccs1` [MLS000706198] cannot be ordered by pIC50: < 5.21 for the first, < 6.16 for the second.

`COC(=O)C(NC=O)C(O)(Cc1ccccc1)C(F)(F)F` (stereo not given) [3-benzyl-4,4,4-trifluoro-2-formamido-3-hydroxy-butyric acid methyl ester] and `COC(=O)c1sccc1NC(=O)c1cc2c(s1)CCCC2` [MLS000051746] cannot be ordered by pIC50: < 6.16 for the first, < 5.69 for the second.

`CCCc1cc(C(=O)Nc2cc(OC)c(Cl)cc2OC)no1` [MLS000116379] and `COc1cc(NC(=O)c2cc(C(C)C)on2)c(OC)cc1Cl` [MLS000520019] cannot be ordered by pIC50: < 6.64 for the first, < 6.64 for the second.

For `COc1cc(NC(=O)c2cc(C3CC3)on2)c(OC)cc1Cl` [MLS000522376], the pIC50 was < 7.12.
